Source: PubChem BioAssay AID248 (DTP/NCI, 2004)
“And” between values parts separate entries of the source, which are not always exact repeats. Equal entries are not always repeated. Inconclusive results and toxic doses are left out.

System: L1210 leukemia ip in BDF1 mice, survival T/C
Test: NCI In Vivo Anticancer Drug Screen. Data for tumor model L1210 Leukemia (intraperitoneal) in B6D2F1 (BDF1) mice
Conditions: endpoint: mean survival time, higher = longer survival
Summary of the method: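 Value reflects the ratio of survival in compound-treated mice to survival in vehicle-treated controls, with both groups carrying the same transplanted tumor.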

[1] = dose: 100.0 mg/kg/injection, schedule: Q04DX003 (ip), vehicle: saline with Tween-80
[2] = dose: 200.0 mg/kg/injection, schedule: Q04DX003 (ip), vehicle: saline with Tween-80
[3] = dose: 400.0 mg/kg/injection, schedule: Q04DX003 (ip), vehicle: saline with Tween-80
[4] = dose: 50.0 mg/kg/injection, schedule: Q01DX001 (ip), vehicle: saline
[5] = dose: 100.0 mg/kg/injection, schedule: Q01DX001 (ip), vehicle: saline
[6] = dose: 200.0 mg/kg/injection, schedule: Q01DX001 (ip), vehicle: saline
[7] = dose: 400.0 mg/kg/injection, schedule: Q01DX001 (ip), vehicle: saline
[8] = dose: 100.0 mg/kg/injection, schedule: Q01DX009 (ip), vehicle: saline with Tween-80
[9] = dose: 200.0 mg/kg/injection, schedule: Q01DX009 (ip), vehicle: saline with Tween-80
[10] = dose: 50.0 mg/kg/injection, schedule: Q04DX003 (ip), vehicle: saline
[11] = dose: 100.0 mg/kg/injection, schedule: Q04DX003 (ip), vehicle: saline
[12] = dose: 200.0 mg/kg/injection, schedule: Q04DX003 (ip), vehicle: saline
[13] = dose: 400.0 mg/kg/injection, schedule: Q04DX003 (ip), vehicle: saline
[14] = dose: 100.0 mg/kg/injection, schedule: Q04DX002 (ip), vehicle: Klucel (hydroxypropylcellulose) (HPC)
[15] = dose: 200.0 mg/kg/injection, schedule: Q04DX002 (ip), vehicle: Klucel (hydroxypropylcellulose) (HPC)
[16] = dose: 400.0 mg/kg/injection, schedule: Q04DX002 (ip), vehicle: Klucel (hydroxypropylcellulose) (HPC)
[17] = dose: 25.0 mg/kg/injection, schedule: Q01DX009 (ip), vehicle: saline

COc1ccc(CC(N)C(=O)O)cc1N(CCCl)CCCl (centres undefined)
T/C (dose: 0.07 mg/kg/injection, schedule: Q01DX009 (ip), vehicle: carboxymethylcellulose (CMC)): 116 % of control | T/C (dose: 0.08 mg/kg/injection, schedule: Q01DX009 (ip), vehicle: carboxymethylcellulose (CMC)): 117 % of control | T/C (dose: 0.4 mg/kg/injection, schedule: Q01DX009 (ip), vehicle: carboxymethylcellulose (CMC)): 110 % of control | T/C (dose: 0.6 mg/kg/injection, schedule: Q01DX001 (ip), vehicle: carboxymethylcellulose (CMC)): 111 % of control and 108 % of control | T/C (dose: 1.2 mg/kg/injection, schedule: Q01DX001 (ip), vehicle: carboxymethylcellulose (CMC)): 120 % of control and 106 % of control | T/C (dose: 1.2 mg/kg/injection, schedule: Q01DX009 (ip), vehicle: carboxymethylcellulose (CMC)): 150 % of control | T/C (dose: 1.5 mg/kg/injection, schedule: Q01DX009 (ip), vehicle: carboxymethylcellulose (CMC)): 151 % of control | T/C (dose: 2.0 mg/kg/injection, schedule: Q01DX009 (ip), vehicle: carboxymethylcellulose (CMC)): 166 % of control | T/C (dose: 2.5 mg/kg/injection, schedule: Q01DX001 (ip), vehicle: carboxymethylcellulose (CMC)): 121 % of control and 110 % of control | T/C (dose: 2.5 mg/kg/injection, schedule: Q01DX009 (ip), vehicle: carboxymethylcellulose (CMC)): 227 % of control | T/C (dose: 3.0 mg/kg/injection, schedule: Q01DX009 (ip), vehicle: carboxymethylcellulose (CMC)): 183 % of control | T/C (dose: 4.5 mg/kg/injection, schedule: Q01DX009 (ip), vehicle: carboxymethylcellulose (CMC)): 180 % of control and 213 % of control | T/C (dose: 5.0 mg/kg/injection, schedule: Q01DX001 (ip), vehicle: carboxymethylcellulose (CMC)): 123 % of control | T/C (dose: 5.0 mg/kg/injection, schedule: Q01DX009 (ip), vehicle: carboxymethylcellulose (CMC)): 92 % of control | T/C (dose: 5.5 mg/kg/injection, schedule: Q01DX001 (ip), vehicle: carboxymethylcellulose (CMC)): 151 % of control and 152 % of control | T/C (dose: 6.0 mg/kg/injection, schedule: Q01DX009 (ip), vehicle: carboxymethylcellulose (CMC)): 98 % of control | T/C (dose: 7.0 mg/kg/injection, schedule: Q01DX009 (ip), vehicle: carboxymethylcellulose (CMC)): 116 % of control | T/C (dose: 11.0 mg/kg/injection, schedule: Q01DX001 (ip), vehicle: carboxymethylcellulose (CMC)): 206 % of control | T/C (dose: 12.0 mg/kg/injection, schedule: Q01DX009 (ip), vehicle: carboxymethylcellulose (CMC)): 93 % of control | T/C (dose: 16.5 mg/kg/injection, schedule: Q01DX001 (ip), vehicle: carboxymethylcellulose (CMC)): 173 % of control | T/C (dose: 25.0 mg/kg/injection, schedule: Q01DX001 (ip), vehicle: carboxymethylcellulose (CMC)): 217 % of control

C=CCOc1ncnc2nc[nH]c12
T/C [1]: 102 % of control | T/C [2]: 96 % of control | T/C [3]: 101 % of control

Nc1ccn(C2CCCO2)c(=O)n1 (centres undefined)
T/C [4]: 101 % of control | T/C [5]: 95 % of control | T/C [6]: 95 % of control | T/C [7]: 95 % of control

O=C(Nc1ccccc1F)Oc1ccc(C2CCCCC2)cc1
T/C [8]: 104 % of control | T/C [9]: 104 % of control | T/C (dose: 400.0 mg/kg/injection, schedule: Q01DX009 (ip), vehicle: saline with Tween-80): 101 % of control

Cc1cc(C)nc(/N=C(/N)Nc2ccc(S(=O)(=O)NC(=O)Nc3ccccc3)cc2)n1
T/C [5]: 92 % of control | T/C [6]: 98 % of control | T/C [7]: 102 % of control

CCC1(CC)NC(=O)N(CCOS(C)(=O)=O)C1=O
T/C [10]: 95 % of control | T/C [11]: 115 % of control | T/C [12]: 101 % of control | T/C [13]: 100 % of control

Nc1cc(Cl)c(S(=O)(=O)O)cc1Cl
T/C (dose: 50.0 mg/kg/injection, schedule: Q01DX009 (ip), vehicle: saline with Tween-80): 90 % of control | T/C [5]: 95 % of control | T/C [8]: 107 % of control | T/C [14]: 100 % of control | T/C [6]: 86 % of control | T/C [9]: 97 % of control | T/C [15]: 91 % of control | T/C [16]: 88 % of control

CCOC(=O)N1C(=O)NC(=O)C1c1ccccc1 (centres undefined)
T/C [4]: 97 % of control | T/C [5]: 115 % of control | T/C [6]: 97 % of control

Cc1cc(C)c(NC(=O)C2CCCCC2C(=O)O)c(C)c1 (centres undefined)
T/C [14]: 99 % of control | T/C [15]: 92 % of control | T/C [16]: 99 % of control

O=C(CBr)Nc1ccc(C(=O)O)c(O)c1
T/C (dose: 12.5 mg/kg/injection, schedule: Q04DX003 (ip), vehicle: Klucel (hydroxypropylcellulose) (HPC)): 103 % of control | T/C (dose: 25.0 mg/kg/injection, schedule: Q04DX003 (ip), vehicle: Klucel (hydroxypropylcellulose) (HPC)): 92 % of control | T/C (dose: 50.0 mg/kg/injection, schedule: Q04DX003 (ip), vehicle: Klucel (hydroxypropylcellulose) (HPC)): 92 % of control

OCC1CC[N-]CC1.OCC1CC[N-]CC1.[Cl][Pt+2]([Cl])([Cl])[Cl]
T/C (dose: 12.5 mg/kg/injection, schedule: Q01DX009 (ip), vehicle: saline): 105 % of control | T/C [17]: 94 % of control | T/C (dose: 25.0 mg/kg/injection, schedule: Q04DX003 (ip), vehicle: saline): 94 % of control | T/C (dose: 50.0 mg/kg/injection, schedule: Q01DX009 (ip), vehicle: saline): 103 % of control | T/C [10]: 107 % of control | T/C [11]: 104 % of control

CCCCNc1ccc([N+](=O)[O-])cc1[N+](=O)[O-]
T/C (dose: 50.0 mg/kg/injection, schedule: Q01DX009 (ip), vehicle: other): 104 % of control | T/C (dose: 100.0 mg/kg/injection, schedule: Q01DX009 (ip), vehicle: other): 93 % of control | T/C (dose: 100.0 mg/kg/injection, schedule: Q04DX003 (ip), vehicle: other): 104 % of control | T/C (dose: 200.0 mg/kg/injection, schedule: Q01DX009 (ip), vehicle: other): 104 % of control | T/C (dose: 200.0 mg/kg/injection, schedule: Q04DX003 (ip), vehicle: other): 96 % of control

CCOc1cc(N2CCOCC2)c(OCC)cc1N
T/C (dose: 6.0 mg/kg/injection, schedule: Q01DX009 (ip), vehicle: saline): 103 % of control | T/C (dose: 12.0 mg/kg/injection, schedule: Q01DX009 (ip), vehicle: saline): 100 % of control | T/C (dose: 12.0 mg/kg/injection, schedule: Q04DX003 (ip), vehicle: other): 100 % of control | T/C [17]: 94 % of control | T/C (dose: 25.0 mg/kg/injection, schedule: Q04DX003 (ip), vehicle: other): 95 % of control

NC(Cc1ncc[nH]1)C(=O)O (centres undefined)
T/C (dose: 100.0 mg/kg/injection, schedule: Q04DX002 (ip), vehicle: other): 104 % of control | T/C (dose: 200.0 mg/kg/injection, schedule: Q04DX002 (ip), vehicle: other): 96 % of control | T/C (dose: 400.0 mg/kg/injection, schedule: Q04DX002 (ip), vehicle: other): 119 % of control

N#CC1(N(O)C(=O)Nc2ccccc2)CCCCC1
T/C [5]: 93 % of control | T/C [6]: 96 % of control | T/C [7]: 91 % of control

O=c1ccc2c(-c3ccccc3O)c3ccc(O)cc3oc-2c1
T/C (dose: 100.0 mg/kg/injection, schedule: Q04DX003 (ip), vehicle: Klucel (hydroxypropylcellulose) (HPC)): 93 % of control | T/C (dose: 200.0 mg/kg/injection, schedule: Q04DX003 (ip), vehicle: Klucel (hydroxypropylcellulose) (HPC)): 94 % of control | T/C (dose: 400.0 mg/kg/injection, schedule: Q04DX003 (ip), vehicle: Klucel (hydroxypropylcellulose) (HPC)): 92 % of control

CCOC(=O)c1cc2c([nH]1)CCCC2
T/C (dose: 100.0 mg/kg/injection, schedule: Q04DX002 (ip), vehicle: saline with Tween-80): 100 % of control | T/C (dose: 200.0 mg/kg/injection, schedule: Q04DX002 (ip), vehicle: saline with Tween-80): 94 % of control | T/C (dose: 400.0 mg/kg/injection, schedule: Q04DX002 (ip), vehicle: saline with Tween-80): 97 % of control

CCCCCCCCCCCC(=O)Nc1cc(C(C)C)ccc1C
T/C [5]: 87 % of control | T/C [11]: 88 % of control | T/C [6]: 86 % of control | T/C [7]: 91 % of control

C[n+]1ccccc1C(=O)O
T/C [5]: 97 % of control | T/C [11]: 97 % of control | T/C [6]: 106 % of control | T/C [12]: 95 % of control | T/C [7]: 101 % of control | T/C [13]: 92 % of control

CC1N=C1c1ccccc1 (centres undefined)
T/C (dose: 100.0 mg/kg/injection, schedule: Q04DX002 (ip), vehicle: saline): 102 % of control | T/C (dose: 200.0 mg/kg/injection, schedule: Q04DX002 (ip), vehicle: saline): 115 % of control | T/C (dose: 400.0 mg/kg/injection, schedule: Q04DX002 (ip), vehicle: saline): 105 % of control

CC(=O)C1CCCCC1
T/C [1]: 107 % of control | T/C [2]: 109 % of control | T/C [3]: 96 % of control
